Measured values published in ChEMBL document CHEMBL1157483, “Discovery of potent, orally active benzimidazole glucagon receptor antagonists” (Bioorg Med Chem Lett, 2008).
One block for each molecule: values may come before it. Activity calls are given as the source filed them. The calls are words filed in the database; no cut-off is given here.

Tests used:
Homo sapiens [1] = species on record: Homo sapiens; test: Selectivity for human glucagon receptor over human GIP
Glucagon receptor [2] = target: T1, Glucagon receptor (Homo sapiens, UniProt P47871); test: Displacement of [125I]glucagon from human GCGR expressed in CHO cells; type: cell-based
T1 sequence (P47871 whole entry): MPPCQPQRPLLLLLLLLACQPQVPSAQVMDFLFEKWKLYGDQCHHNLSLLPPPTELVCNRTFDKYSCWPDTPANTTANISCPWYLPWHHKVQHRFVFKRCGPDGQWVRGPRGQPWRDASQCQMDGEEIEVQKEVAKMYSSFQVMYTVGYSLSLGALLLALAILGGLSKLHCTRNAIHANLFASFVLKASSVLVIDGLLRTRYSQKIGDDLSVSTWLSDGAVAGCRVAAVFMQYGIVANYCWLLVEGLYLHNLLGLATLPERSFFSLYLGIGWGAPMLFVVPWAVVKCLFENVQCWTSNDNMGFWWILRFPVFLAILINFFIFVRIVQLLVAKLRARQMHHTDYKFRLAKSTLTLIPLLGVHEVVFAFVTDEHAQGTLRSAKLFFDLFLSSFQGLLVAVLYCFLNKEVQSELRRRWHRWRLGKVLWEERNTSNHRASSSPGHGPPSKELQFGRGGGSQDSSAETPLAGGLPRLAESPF

Glucagon receptor [3] = target: T1, Glucagon receptor; test: Antagonist activity against human GCGR expressed in CHO cells assessed as glucagon-induced cAMP accumulation; type: functional, cell-based
Homo sapiens [4] = species on record: Homo sapiens; test: Selectivity for human glucagon receptor over human GLP1
[5] = target: T2, Gastric inhibitory polypeptide receptor (Homo sapiens, UniProt P48546); test: Binding affinity against human GIP
T2 sequence (P48546 whole entry): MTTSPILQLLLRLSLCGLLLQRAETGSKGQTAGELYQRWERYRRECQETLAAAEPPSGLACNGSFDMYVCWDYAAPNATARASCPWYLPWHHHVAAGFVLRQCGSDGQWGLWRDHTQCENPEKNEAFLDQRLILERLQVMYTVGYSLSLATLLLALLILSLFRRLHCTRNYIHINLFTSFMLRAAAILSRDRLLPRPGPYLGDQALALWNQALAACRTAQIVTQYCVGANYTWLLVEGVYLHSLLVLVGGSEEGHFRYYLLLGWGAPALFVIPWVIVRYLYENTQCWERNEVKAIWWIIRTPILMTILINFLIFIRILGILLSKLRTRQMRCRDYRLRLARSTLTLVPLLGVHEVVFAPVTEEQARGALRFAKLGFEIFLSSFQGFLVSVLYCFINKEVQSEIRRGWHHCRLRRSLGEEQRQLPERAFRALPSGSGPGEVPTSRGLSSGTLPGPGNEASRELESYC

[6] = target: Glucagon-like peptide 1 receptor, Homo sapiens (UniProt P43220); test: Binding affinity against human GLP1
Chain of Glucagon-like peptide 1 receptor, Homo sapiens (P43220 whole entry, looked up): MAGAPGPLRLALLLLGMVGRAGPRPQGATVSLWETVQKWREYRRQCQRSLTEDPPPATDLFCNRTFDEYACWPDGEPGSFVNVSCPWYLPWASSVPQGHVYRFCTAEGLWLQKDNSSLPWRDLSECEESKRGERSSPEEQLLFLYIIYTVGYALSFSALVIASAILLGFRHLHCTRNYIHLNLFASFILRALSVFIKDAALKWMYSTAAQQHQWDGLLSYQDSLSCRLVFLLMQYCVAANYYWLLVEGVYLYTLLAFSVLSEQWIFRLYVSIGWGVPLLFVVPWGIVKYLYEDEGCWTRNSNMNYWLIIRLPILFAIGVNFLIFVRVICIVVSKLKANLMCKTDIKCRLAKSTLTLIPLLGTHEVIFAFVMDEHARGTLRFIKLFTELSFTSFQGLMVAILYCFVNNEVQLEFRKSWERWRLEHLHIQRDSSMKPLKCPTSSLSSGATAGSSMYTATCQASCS

[7] = Oral bioavailability in dog at 1 mg/kg; type: ADME, organism-based, Canis lupus familiaris; settings: in vivo
[8] = Antagonist activity against rhesus monkey glucagon receptor assessed as cAMP accumulation; type: functional, Macaca mulatta
[9] = target: Voltage-gated inwardly rectifying potassium channel KCNH2 (Homo sapiens, UniProt Q12809); test: Inhibition of hERG potassium channel; type: toxicity
Chain of Voltage-gated inwardly rectifying potassium channel KCNH2 (Q12809 whole entry): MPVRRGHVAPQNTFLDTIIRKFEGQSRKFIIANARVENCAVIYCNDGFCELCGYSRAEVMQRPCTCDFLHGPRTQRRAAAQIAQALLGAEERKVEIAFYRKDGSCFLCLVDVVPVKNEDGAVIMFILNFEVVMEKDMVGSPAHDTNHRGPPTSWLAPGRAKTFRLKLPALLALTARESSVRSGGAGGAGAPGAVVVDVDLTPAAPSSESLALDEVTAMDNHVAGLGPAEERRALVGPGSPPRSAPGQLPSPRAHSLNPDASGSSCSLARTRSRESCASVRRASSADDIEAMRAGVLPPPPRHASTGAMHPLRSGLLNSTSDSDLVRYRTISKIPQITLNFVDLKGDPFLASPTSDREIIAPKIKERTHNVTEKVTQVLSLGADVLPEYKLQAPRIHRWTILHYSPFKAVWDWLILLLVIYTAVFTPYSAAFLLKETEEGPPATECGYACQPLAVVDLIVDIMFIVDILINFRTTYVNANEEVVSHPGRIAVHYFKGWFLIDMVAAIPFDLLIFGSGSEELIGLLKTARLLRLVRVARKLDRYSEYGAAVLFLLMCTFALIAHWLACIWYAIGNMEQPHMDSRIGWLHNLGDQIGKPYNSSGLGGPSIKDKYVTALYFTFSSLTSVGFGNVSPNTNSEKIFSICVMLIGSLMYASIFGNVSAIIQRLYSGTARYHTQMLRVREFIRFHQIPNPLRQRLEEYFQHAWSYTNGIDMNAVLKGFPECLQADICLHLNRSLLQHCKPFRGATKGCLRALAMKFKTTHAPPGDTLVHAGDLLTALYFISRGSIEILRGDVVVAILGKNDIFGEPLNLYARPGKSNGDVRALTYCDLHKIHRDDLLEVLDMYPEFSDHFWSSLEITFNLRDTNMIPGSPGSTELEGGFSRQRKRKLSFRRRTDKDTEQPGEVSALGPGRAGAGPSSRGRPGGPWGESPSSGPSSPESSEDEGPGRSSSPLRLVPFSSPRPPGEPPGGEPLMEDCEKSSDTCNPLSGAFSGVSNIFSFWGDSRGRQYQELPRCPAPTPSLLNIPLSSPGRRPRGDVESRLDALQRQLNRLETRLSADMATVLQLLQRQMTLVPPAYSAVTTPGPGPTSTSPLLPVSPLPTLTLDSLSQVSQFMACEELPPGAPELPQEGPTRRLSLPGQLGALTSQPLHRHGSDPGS

[10] = Oral bioavailability in mouse at 2 mg/kg; type: ADME, organism-based; settings: in vivo
[11] = Half life in dog at 0.25 mg/kg, iv and 1 mg/kg, po; type: ADME, organism-based, Canis lupus familiaris; settings: in vivo
[12] = Volume of distribution at steady state in dog at 0.25 mg/kg, iv and 1 mg/kg, po; type: ADME, organism-based, Canis lupus familiaris; settings: in vivo, read-out: Vdss
[13] = Clearance in rat at 1 mg/kg, iv and 2 mg/kg, po; type: ADME, organism-based; settings: in vivo
Cytochrome P450 3A4 = Cytochrome P450 3A4 (Homo sapiens, UniProt P08684); test: Inhibition of CYP3A4; type: ADME
Chain of Cytochrome P450 3A4 (P08684 whole entry): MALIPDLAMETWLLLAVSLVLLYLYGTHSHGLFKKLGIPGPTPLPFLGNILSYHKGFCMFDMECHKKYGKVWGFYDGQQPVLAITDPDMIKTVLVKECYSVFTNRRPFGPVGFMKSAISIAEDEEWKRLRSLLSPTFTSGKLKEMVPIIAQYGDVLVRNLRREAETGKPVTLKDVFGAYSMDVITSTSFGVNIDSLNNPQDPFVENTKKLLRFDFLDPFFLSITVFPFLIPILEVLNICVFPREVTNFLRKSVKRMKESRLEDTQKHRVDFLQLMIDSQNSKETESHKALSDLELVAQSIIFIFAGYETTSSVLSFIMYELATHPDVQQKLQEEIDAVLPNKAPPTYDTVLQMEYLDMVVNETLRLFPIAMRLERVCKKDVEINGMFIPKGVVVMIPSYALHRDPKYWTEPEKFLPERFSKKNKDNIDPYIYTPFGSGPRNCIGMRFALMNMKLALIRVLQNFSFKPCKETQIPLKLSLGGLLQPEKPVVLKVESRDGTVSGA

Cytochrome P450 2C9 = Cytochrome P450 2C9 (Homo sapiens, UniProt P11712); test: Inhibition of CYP2C9; type: ADME
Chain of Cytochrome P450 2C9 (P11712 whole entry): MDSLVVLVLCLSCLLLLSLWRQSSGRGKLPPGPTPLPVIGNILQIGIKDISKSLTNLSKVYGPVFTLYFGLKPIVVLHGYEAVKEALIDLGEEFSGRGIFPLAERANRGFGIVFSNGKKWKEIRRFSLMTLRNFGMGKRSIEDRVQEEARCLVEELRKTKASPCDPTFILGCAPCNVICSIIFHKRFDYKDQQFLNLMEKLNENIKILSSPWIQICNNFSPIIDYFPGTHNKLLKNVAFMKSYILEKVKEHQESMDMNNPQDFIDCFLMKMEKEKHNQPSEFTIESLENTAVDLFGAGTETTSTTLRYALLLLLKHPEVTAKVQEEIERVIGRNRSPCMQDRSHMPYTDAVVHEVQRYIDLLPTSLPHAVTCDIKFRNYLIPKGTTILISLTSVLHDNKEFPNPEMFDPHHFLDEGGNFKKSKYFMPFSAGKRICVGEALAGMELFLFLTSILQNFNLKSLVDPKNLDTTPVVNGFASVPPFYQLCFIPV

Mus musculus [14] = test: Reduction of glucose level in po dosed fat diet-induced diabetic mouse transgenic model expressing human glucagon receptor administered for 10 days; type: functional, organism-based
[15] = Oral bioavailability in rhesus monkey at 2 mg/kg; type: ADME, organism-based, Macaca mulatta; settings: in vivo
Rhesus monkey [16] = test: Inhibition of glucagon-dependent glucose excursion in rhesus monkey at 10 mg/kg, po; type: functional, organism-based; design: dose 10 mg/kg; settings: Macaca mulatta
Rhesus monkey [17] = test: Inhibition of glucagon-dependent glucose excursion in rhesus monkey at 3 mg/kg, po; type: functional, organism-based; design: dose 3 mg/kg; settings: Macaca mulatta
Mus musculus [18] = test: Inhibition of glucagon-dependent glucose excursion in transgenic mouse expressing human glucagon receptor at 3 to 30 mg/kg, po; type: functional, organism-based
[19] = Clearance in rhesus monkey at 0.5 mg/kg, iv and 2 mg/kg, po; type: ADME, organism-based, Macaca mulatta; settings: in vivo
[20] = Half life in mouse at 1 mg/kg, iv and 2 mg/kg, po; type: ADME, organism-based; settings: in vivo
[21] = Clearance in dog at 0.25 mg/kg, iv and 1 mg/kg, po; type: ADME, organism-based, Canis lupus familiaris; settings: in vivo
[22] = Volume of distribution at steady state in rat at 1 mg/kg, iv and 2 mg/kg, po; type: ADME, organism-based; settings: in vivo, read-out: Vdss
[23] = Volume of distribution at steady state in rhesus monkey at 0.5 mg/kg, iv and 2 mg/kg, po; type: ADME, organism-based, Macaca mulatta; settings: in vivo, read-out: Vdss
[24] = Half life in rat at 1 mg/kg, iv and 2 mg/kg, po; type: ADME, organism-based; settings: in vivo
Cytochrome P450 2D6 = Cytochrome P450 2D6 (Homo sapiens, UniProt P10635); test: Inhibition of CYP2D6; type: ADME
Chain of Cytochrome P450 2D6 (P10635 whole entry): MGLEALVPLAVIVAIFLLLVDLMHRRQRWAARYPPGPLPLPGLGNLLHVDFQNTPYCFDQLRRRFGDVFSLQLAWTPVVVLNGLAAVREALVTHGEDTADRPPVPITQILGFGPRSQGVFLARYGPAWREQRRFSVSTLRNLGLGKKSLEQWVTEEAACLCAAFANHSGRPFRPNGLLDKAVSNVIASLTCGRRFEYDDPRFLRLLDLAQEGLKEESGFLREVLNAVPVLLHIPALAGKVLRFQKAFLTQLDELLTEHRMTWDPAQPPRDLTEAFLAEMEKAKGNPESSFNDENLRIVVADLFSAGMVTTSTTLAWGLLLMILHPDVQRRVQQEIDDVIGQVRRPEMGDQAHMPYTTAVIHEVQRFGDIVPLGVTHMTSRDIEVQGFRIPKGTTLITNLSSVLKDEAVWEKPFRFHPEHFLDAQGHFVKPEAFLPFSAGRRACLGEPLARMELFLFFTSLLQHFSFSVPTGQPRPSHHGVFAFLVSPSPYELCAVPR

[25] = Volume of distribution at steady state in mouse at 1 mg/kg, iv and 2 mg/kg, po; type: ADME, organism-based; settings: in vivo, read-out: Vdss
[26] = Half life in rhesus monkey at 0.5 mg/kg, iv and 2 mg/kg, po; type: ADME, organism-based, Macaca mulatta; settings: in vivo
[27] = Clearance in mouse at 1 mg/kg, iv and 2 mg/kg, po; type: ADME, organism-based; settings: in vivo
[28] = Oral bioavailability in rat at 2 mg/kg; type: ADME, organism-based; settings: in vivo

SMILES: Cc1ccc2[nH]c(N(Cc3ccc(C(=O)Nc4nnn[nH]4)cc3)[C@H]3CC[C@H](C(C)(C)C)CC3)nc2c1
IC50 (Glucagon receptor [2]): 10 nM | IC50 (Glucagon receptor [3]): > 1000 nM

SMILES: Cn1c(N(Cc2ccc(C(=O)Nc3nnn[nH]3)cc2)[C@H]2CC[C@H](C(C)(C)C)CC2)nc2cc(C(F)(F)F)ccc21
bioavailability [7]: 27% | IC50 [8]: 111 nM | IC50 [9]: > 10000 nM | bioavailability [10]: 2% | half-life [11]: 2.1 h | Vd [12]: 0.5 L/kg | Selectivity ratio (Homo sapiens [1]): > 50 | clearance [13]: 12 mL/min/kg | IC50 (Cytochrome P450 3A4): > 10000 nM | IC50 (Cytochrome P450 2C9): > 10000 nM | Activity (Mus musculus [14]): Dose-dependent effect | bioavailability [15]: 23% | Activity (Rhesus monkey [16]): Active | Activity (Rhesus monkey [17]): Active | IC50 (Glucagon receptor [2]): 11 nM | Activity (Mus musculus [18]): Active | clearance [19]: 16 mL/min/kg | half-life [20]: 1.9 h | clearance [21]: 3.8 mL/min/kg | Vd [22]: 0.74 L/kg | Vd [23]: 0.8 L/kg | half-life [24]: 1.6 h | IC50 (Cytochrome P450 2D6): > 10000 nM | IC50 (Glucagon receptor [3]): 62 nM | Vd [25]: 0.33 L/kg | Selectivity ratio (Homo sapiens [4]): > 50 | IC50 [5]: 6000 nM | half-life [26]: 2.4 h | clearance [27]: 4 mL/min/kg | IC50 [6]: 6800 nM | bioavailability [28]: 5%

SMILES: CCOc1ccc2c(c1)nc(N(Cc1ccc(C(=O)Nc3nnn[nH]3)cc1)[C@H]1CC[C@H](C(C)(C)C)CC1)n2C
Selectivity ratio (Homo sapiens [1]): > 50 | IC50 (Glucagon receptor [2]): 2 nM | IC50 (Glucagon receptor [3]): 22 nM | Selectivity ratio (Homo sapiens [4]): > 50 | IC50 [5]: 2800 nM | IC50 [6]: 7600 nM

SMILES: Cc1cc2nc(N(Cc3ccc(C(=O)Nc4nnn[nH]4)cc3)[C@H]3CC[C@H](C(C)(C)C)CC3)n(C)c2cc1C
Selectivity ratio (Homo sapiens [1]): > 50 | IC50 (Glucagon receptor [2]): 6 nM | IC50 (Glucagon receptor [3]): 18 nM | Selectivity ratio (Homo sapiens [4]): > 50 | IC50 [5]: > 10000 nM

SMILES: Cc1ccc2[nH]c(N(Cc3ccc(C(=O)Nc4nnn[nH]4)cc3)c3ccc(Oc4ccc(Cl)cc4)c(Cl)c3)nc2c1
IC50 (Glucagon receptor [2]): 13 nM | IC50 (Glucagon receptor [3]): > 1000 nM

SMILES: CCCn1c(N(Cc2ccc(C(=O)Nc3nnn[nH]3)cc2)[C@H]2CC[C@H](C(C)(C)C)CC2)nc2ccccc21
IC50 (Glucagon receptor [2]): 24 nM

SMILES: Cn1c(N(Cc2ccc(C(=O)Nc3nnn[nH]3)cc2)c2ccc(C(C)(C)C)cc2)nc2ccccc21
IC50 (Glucagon receptor [2]): 31 nM | IC50 (Glucagon receptor [3]): 810 nM

SMILES: Cn1c(N(Cc2ccc(C(=O)Nc3nnn[nH]3)cc2)[C@H]2CC[C@H](C(C)(C)C)CC2)nc2cc(OC3CCCC3)ccc21
bioavailability [10]: 2% | Selectivity ratio (Homo sapiens [1]): > 50 | clearance [13]: 13 mL/min/kg | IC50 (Glucagon receptor [2]): 1 nM | half-life [20]: 3.2 h | Vd [22]: 0.6 L/kg | half-life [24]: 2.9 h | IC50 (Glucagon receptor [3]): 9 nM | Vd [25]: 0.5 L/kg | Selectivity ratio (Homo sapiens [4]): > 50 | IC50 [5]: 2000 nM | clearance [27]: 10 mL/min/kg | IC50 [6]: 5000 nM | bioavailability [28]: 5%

SMILES: COc1ccc2c(c1)nc(N(Cc1ccc(C(=O)Nc3nnn[nH]3)cc1)[C@H]1CC[C@H](C(C)(C)C)CC1)n2C
Selectivity ratio (Homo sapiens [1]): > 50 | IC50 (Glucagon receptor [2]): 4 nM | IC50 (Glucagon receptor [3]): 38 nM | Selectivity ratio (Homo sapiens [4]): > 50 | IC50 [5]: 2500 nM | IC50 [6]: 5900 nM

More lines, in order of falling IC50 (Glucagon receptor [2]), values ahead:

IC50 (Glucagon receptor [2]): 32 nM
SMILES: CC(C)(C)[C@H]1CC[C@@]2(CCN(c3ccc(OC(F)(F)F)cc3)C(=O)N2Cc2ccc(C(=O)Nc3nnn[nH]3)cc2)CC1

Selectivity ratio (Homo sapiens [1]): > 50 | IC50 (Glucagon receptor [2]): 4 nM | IC50 (Glucagon receptor [3]): 213 nM | Selectivity ratio (Homo sapiens [4]): > 50 | IC50 [5]: > 1000 nM
SMILES: COc1ccc2nc(N(Cc3ccc(C(=O)Nc4nnn[nH]4)cc3)[C@H]3CC[C@H](C(C)(C)C)CC3)n(C)c2c1

Selectivity ratio (Homo sapiens [1]): > 50 | IC50 (Glucagon receptor [2]): 2 nM | IC50 (Glucagon receptor [3]): > 1000 nM | Selectivity ratio (Homo sapiens [4]): > 50 | IC50 [5]: > 1000 nM
SMILES: Cn1c(N(Cc2ccc(C(=O)Nc3nnn[nH]3)cc2)[C@H]2CC[C@H](C(C)(C)C)CC2)nc2cc(O)ccc21

Selectivity ratio (Homo sapiens [1]): > 50 | IC50 (Glucagon receptor [2]): 1 nM | IC50 (Glucagon receptor [3]): 8 nM | Selectivity ratio (Homo sapiens [4]): > 50 | IC50 [5]: 4900 nM | IC50 [6]: 5000 nM
SMILES: CCCOc1ccc2nc(N(Cc3ccc(C(=O)Nc4nnn[nH]4)cc3)[C@H]3CC[C@H](C(C)(C)C)CC3)n(C)c2c1
